Laboratory results from patent US10752635B2, “Indazole compounds and uses thereof” (Incyte Corporation, priority 2018, dated 2020).
pKi: −log10 of the molar value.

Target: HPK1 (Homo sapiens (Human), UniProt Q92918)
Experiment: HPK1 Kinase Binding Assay
Conditions: active HPK1 (SignalChem M23-11G), tracer 222, LanthaScreen Eu-Anti GST antibody, one hour at 25° C.
Procedure: A stock solution of 1 mM test compound was prepared in DMSO. The compound plate was prepared by 3-fold and 11-point serial dilutions. 0.1 μL of the compound in DMSO was transferred from the compound plate to the white 384 well polystyrene plates. The assay buffer contained 50 mM HEPES, pH 7.5, 0.01% Tween-20, 5 mM MgCl2, 0.01% BSA, and 5 mM DTT. 5 μL of 4 nM active HPK1 (SignalChem M23-11G) prepared in the buffer was added to the plate. The enzyme concentration given was based on the given stock concentration reported by the vender. […] After one hour incubation at 25° C., the plates were read on a PHERAstar FS plate reader (BMG Labtech). Ki values were determined.

Chain of HPK1 (Q92918 1-346 limits assumed): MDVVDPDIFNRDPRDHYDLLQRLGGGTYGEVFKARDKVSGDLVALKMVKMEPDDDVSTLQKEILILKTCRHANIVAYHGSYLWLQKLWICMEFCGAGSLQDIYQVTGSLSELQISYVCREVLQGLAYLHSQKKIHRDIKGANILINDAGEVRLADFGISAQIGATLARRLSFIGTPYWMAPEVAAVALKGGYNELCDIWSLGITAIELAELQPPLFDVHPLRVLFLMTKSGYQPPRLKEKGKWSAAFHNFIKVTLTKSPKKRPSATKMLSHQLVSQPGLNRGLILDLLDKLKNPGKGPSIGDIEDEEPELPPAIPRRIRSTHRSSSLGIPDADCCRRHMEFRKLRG

| Structure (SMILES) | pKi |
| --- | --- |
| COc1cccc(F)c1-c1nccc(C(=O)Nc2cc(F)c3nn(C)cc3c2N2C[C@@H](N)C[C@H]2CO)n1 (single isomer, unassigned; peak 1) [3, Peak 1] | > 7.00 |
| COc1cccc(F)c1-c1nccc(C(=O)Nc2cc(F)c3nn(C)cc3c2N2CCC3(CCNC3=O)C2)n1 (single isomer, unassigned; peak 1) [8, Peak 1] | > 7.00 |
| COc1cccc(F)c1-c1nccc(C(=O)Nc2cc(F)c3nn(C)cc3c2-c2ccccc2C)n1 (single isomer, unassigned; peak 1) [14, Peak 1] | > 7.00 |
| COc1cccc(F)c1-c1nccc(C(=O)Nc2cc(C#N)c3nn(C)cc3c2N2CCC[C@@H](N)C2)n1 (single isomer, unassigned; peak 1) [15, Peak 1] | > 7.00 |
| CNC(=O)c1cc(NC(=O)c2ccnc(-c3c(F)cccc3OC)n2)c(N2CCC[C@@H](N)C2)c2cn(C)nc12 (single isomer, unassigned; peak 1) [16, Peak 1] | 5.30 to 6.30 |
| COc1cccc(F)c1-c1nccc(C(=O)Nc2cc(F)c3c(cnn3C)c2N2CCC3(CCNC3=O)C2)n1 (single isomer, unassigned; peak 2) [8, Peak 2] | > 7.00 |
| COc1cccc(F)c1-c1nccc(C(=O)Nc2cc(F)c3c(cnn3C)c2N2CCC[C@@H]2CN)n1 (single isomer, unassigned; peak 2) [10, Peak 2] | > 7.00 |
| COc1cccc(F)c1-c1nccc(C(=O)Nc2cc(F)c3c(cnn3C)c2-c2ccccc2C)n1 (single isomer, unassigned; peak 2) [14, Peak 2] | > 7.00 |
| COc1cccc(F)c1-c1nccc(C(=O)Nc2cc(C#N)c3c(cnn3C)c2N2CCC[C@@H](N)C2)n1 (single isomer, unassigned; peak 2) [15, Peak 2] | > 7.00 |
| CNC(=O)c1cc(NC(=O)c2ccnc(-c3c(F)cccc3OC)n2)c(N2CCC[C@@H](N)C2)c2cnn(C)c12 (single isomer, unassigned; peak 2) [16, Peak 2] | > 7.00 |
| COc1cccc(F)c1-c1nccc(C(=O)Nc2cc(F)c3nn(C)cc3c2N2CCOCC2)n1 [7, Peak 1] | > 7.00 |
| COc1cccc(F)c1-c1nccc(C(=O)Nc2cc(F)c3c(cnn3C)c2N2CCOCC2)n1 [7, Peak 2] | > 7.00 |
| COc1cccc(F)c1-c1nccc(C(=O)Nc2cc(C)c3nn(C)cc3c2N2CCNCC2)n1 [18, Peak 1] | > 7.00 |
| COc1cccc(F)c1-c1nccc(C(=O)Nc2cc(C)c3c(cnn3C)c2N2CCNCC2)n1 [18, Peak 2] | > 7.00 |
| CCNC(=O)N1C[C@@H]2C[C@H]1CN2c1c(NC(=O)c2ccnc(-c3c(F)cccc3OC)n2)cc(F)c2c1cnn2C [Example 2, (1S,4S)—N-Ethyl-5-(7-fluoro-5-(2-(2-fluoro-6-methoxyphenyl)pyrimidine-4-carboxamido)-1-methyl-1H-indazol-4-yl)-2,5-diazabicyclo[2.2.1]heptane-2-carboxamide] | > 7.00 |
| COc1cccc(F)c1-c1nccc(C(=O)Nc2cc(F)c3c(cnn3C)c2N2CC(N)C2)n1 [Example 9, N-(4-(3-Aminoazetidin-1-yl)-7-fluoro-1-methyl-1H-indazol-5-yl)-2-(2-fluoro-6-methoxyphenyl)pyrimidine-4-carboxamide] | > 7.00 |
| COc1cccc(F)c1-c1nccc(C(=O)Nc2cc(F)c3c(cnn3C)c2C2CCNC2)n1 (centres unmarked) [Example 11, N-(7-Fluoro-1-methyl-4-(pyrrolidin-3-yl)-1H-indazol-5-yl)-2-(2-fluoro-6-methoxyphenyl)pyrimidine-4-carboxamide] | > 7.00 |
| COc1cccc(F)c1-c1nccc(C(=O)Nc2cc(F)c3c(cnn3C)c2N2CCCC2=O)n1 [Example 12, N-(7-Fluoro-1-methyl-4-(2-oxopyrrolidin-1-yl)-1H-indazol-5-yl)-2-(2-fluoro-6-methoxyphenyl)pyrimidine-4-carboxamide] | > 7.00 |

| Structure (SMILES) | pKi |
| --- | --- |
| COc1cccc(F)c1-c1nccc(C(=O)Nc2cc(F)c3c(cnn3C)c2-n2cccn2)n1 [Example 13, N-(7-Fluoro-1-methyl-4-(1H-pyrazol-1-yl)-1H-indazol-5-yl)-2-(2-fluoro-6-methoxyphenyl)pyrimidine-4-carboxamide] | > 7.00 |
| COc1cccc(F)c1-c1nccc(C(=O)Nc2cc(F)c3c(cnn3CCO)c2N2CC[C@@H](N)C2)n1 [Example 17, (R)—N-(4-(3-Aminopyrrolidin-1-yl)-7-fluoro-1-(2-hydroxyethyl)-1H-indazol-5-yl)-2-(2-fluoro-6-methoxyphenyl)pyrimidine-4-carboxamide] | > 7.00 |
| COc1cccc(F)c1-c1nccc(C(=O)Nc2cc(F)c3c(cnn3C)c2-c2cccnc2)n1 [Example 20, N-(7-Fluoro-1-methyl-4-(pyridin-3-yl)-1H-indazol-5-yl)-2-(2-fluoro-6-methoxyphenyl)pyrimidine-4-carboxamide] | > 7.00 |
| COc1cccc(F)c1-c1nccc(C(=O)Nc2cc(F)c3c(cnn3C)c2-c2cnn(C)c2)n1 [Example 21, N-(7-Fluoro-1-methyl-4-(1-methyl-1H-pyrazol-4-yl)-1H-indazol-5-yl)-2-(2-fluoro-6-methoxyphenyl)pyrimidine-4-carboxamide] | > 7.00 |
| COc1cccc(F)c1-c1nccc(C(=O)Nc2cc(F)c3c(cnn3C)c2-c2cccc(CO)c2)n1 [Example 22, N-(7-Fluoro-4-(3-(hydroxymethyl)phenyl)-1-methyl-1H-indazol-5-yl)-2-(2-fluoro-6-methoxyphenyl)pyrimidine-4-carboxamide] | > 7.00 |
| COc1cccc(F)c1-c1nccc(C(=O)Nc2cc(F)c3c(cnn3C)c2-c2ccccc2CO)n1 [Example 23, N-(7-Fluoro-4-(2-(hydroxymethyl)phenyl)-1-methyl-1H-indazol-5-yl)-2-(2-fluoro-6-methoxyphenyl)pyrimidine-4-carboxamide] | > 7.00 |
| COc1cccc(F)c1-c1nccc(C(=O)Nc2cc(F)c3c(cnn3C)c2-c2cccc(CN(C)C)c2)n1 [Example 24, N-(4-(3-((Dimethylamino)methyl)phenyl)-7-fluoro-1-methyl-1H-indazol-5-yl)-2-(2-fluoro-6-methoxyphenyl)pyrimidine-4-carboxamide] | > 7.00 |
| COc1cccc(F)c1-c1nccc(C(=O)Nc2cc(F)c3c(cnn3CCO)c2N2C[C@@H]3C[C@H]2CN3)n1 [Example 25, N-(4-((1S,4S)-2,5-diazabicyclo[2.2.1]heptan-2-yl)-7-fluoro-1-(2-hydroxyethyl)-1H-indazol-5-yl)-2-(2-fluoro-6-methoxyphenyl)pyrimidine-4-carboxamide] | > 7.00 |
| COCCn1ncc2c(N3C[C@@H]4C[C@H]3CN4)c(NC(=O)c3ccnc(-c4c(F)cccc4OC)n3)cc(F)c21 [Example 26, N-(4-((1S,4S)-2,5-diazabicyclo[2.2.1]heptan-2-yl)-7-fluoro-1-(2-methoxyethyl)-1H-indazol-5-yl)-2-(2-fluoro-6-methoxyphenyl)pyrimidine-4-carboxamide] | > 7.00 |
| COc1cccc(F)c1-c1nccc(C(=O)Nc2ccc3c(c(I)nn3C)c2N2CCC(N(C)C)CC2)n1 [Example 27, N-(4-(4-(Dimethylamino)piperidin-1-yl)-3-iodo-1-methyl-1H-indazol-5-yl)-2-(2-fluoro-6-methoxyphenyl)pyrimidine-4-carboxamide] | > 7.00 |
| COc1cccc(F)c1-c1nccc(C(=O)Nc2ccc3c(c(C)nn3C)c2N2CCC(N(C)C)CC2)n1 [Example 28, N-(4-(4-(Dimethylamino)piperidin-1-yl)-1,3-dimethyl-1H-indazol-5-yl)-2-(2-fluoro-6-methoxyphenyl)pyrimidine-4-carboxamide] | > 7.00 |
| COc1cccc(F)c1-c1nccc(C(=O)Nc2ccc3c(c(-c4ccccc4)nn3C)c2N2CCC(N(C)C)CC2)n1 [Example 29, N-(4-(4-(Dimethylamino)piperidin-1-yl)-1-methyl-3-phenyl-1H-indazol-5-yl)-2-(2-fluoro-6-methoxyphenyl)pyrimidine-4-carboxamide] | 6.30 to 7.00 |
| COc1cccc(F)c1-c1nccc(C(=O)Nc2ccc3c(c(-c4cnn(C)c4)nn3C)c2N2CCC(N(C)C)CC2)n1 [Example 30, N-(4-(4-(Dimethylamino)piperidin-1-yl)-1-methyl-3-(1-methyl-1H-pyrazol-4-yl)-1H-indazol-5-yl)-2-(2-fluoro-6-methoxyphenyl)pyrimidine-4-carboxamide] | > 7.00 |
| COCCn1ncc2c(N3C[C@@H](N)C[C@H]3CO)c(NC(=O)c3ccnc(-c4c(F)cccc4OC)n3)cc(F)c21 [Example 31, N-(4-((2S,4S)-4-Amino-2-(hydroxymethyl)pyrrolidin-1-yl)-7-fluoro-1-(2-methoxyethyl)-1H-indazol-5-yl)-2-(2-fluoro-6-methoxyphenyl)pyrimidine-4-carboxamide] | > 7.00 |
| COc1cccc(F)c1-c1nccc(C(=O)Nc2cc(F)c3c(cnn3[C@@H]3CCOC3)c2N2C[C@@H](N)C[C@H]2CO)n1 [Example 32, N-(4-((2S,4S)-4-Amino-2-(hydroxymethyl)pyrrolidin-1-yl)-7-fluoro-1-((R)-tetrahydrofuran-3-yl)-1H-indazol-5-yl)-2-(2-fluoro-6-methoxyphenyl)pyrimidine-4-carboxamide] | > 7.00 |
| COc1cccc(F)c1-c1nccc(C(=O)Nc2cc(F)c3nn(C)cc3c2N2CCN[C@@H](CO)C2)n1 [Example 33, (R)—N-(7-Fluoro-4-(3-(hydroxymethyl)piperazin-1-yl)-2-methyl-2H-indazol-5-yl)-2-(2-fluoro-6-methoxyphenyl)pyrimidine-4-carboxamide] | > 7.00 |
| COc1cccc(F)c1-c1nccc(C(=O)Nc2cc(F)c3c(cnn3-c3ccncc3C#N)c2N2C[C@@H](N)C[C@H]2CO)n1 [Example 34, N-(4-((2S,4S)-4-Amino-2-(hydroxymethyl)pyrrolidin-1-yl)-1-(3-cyanopyridin-4-yl)-7-fluoro-1H-indazol-5-yl)-2-(2-fluoro-6-methoxyphenyl)pyrimidine-4-carboxamide] | > 7.00 |
